We go through eight compounds from patent US20190022039A1, “COMPOUND HAVING ENHANCING ACTIVITY FOR GLUCAGON-LIKE PEPTIDE-1 RECEPTOR ACTIONS” (AJINOMOTO CO., INC., priority 2016, published 2019).

In test [1] the test system is KKAy mice. The test can be described thus: Food intake-suppressive effect in diabetes model mouse. The format is in vivo. The conditions noted are these: male KKAy mice fasted overnight, 3 mg/kg oral in simulated intestinal fluid, 4 hr after administration, vs simulated intestinal fluid group (FIG. 3). How it is done:
11-week-old male KKAy mice were randomly divided into 2 groups. After fasting overnight, simulated intestinal fluid (containing 10 mM taurocholic acid, 2 mM lecithin, 55 mM maleic acid, 81.6 mM sodium hydroxide, 125 mM sodium chloride), or the compound of the present invention (compound 96) dissolved in the simulated intestinal fluid was orally administered (3 mg/kg), a commercially available feed (CRF-1, manufactured by Oriental Yeast Co., ltd.) was given and changes in the food intake was monitored.

The target in the next test is T1, human GLP-1R (Homo sapiens, UniProt P43220).
T1 construct: expressed in transfected cells; host or cells: PEAK RAPID-derived Gα15-trans48 LD stably expressing cells (PRG48), transiently transfected with Lipofectamine 2000
T1 sequence (P43220 24-463): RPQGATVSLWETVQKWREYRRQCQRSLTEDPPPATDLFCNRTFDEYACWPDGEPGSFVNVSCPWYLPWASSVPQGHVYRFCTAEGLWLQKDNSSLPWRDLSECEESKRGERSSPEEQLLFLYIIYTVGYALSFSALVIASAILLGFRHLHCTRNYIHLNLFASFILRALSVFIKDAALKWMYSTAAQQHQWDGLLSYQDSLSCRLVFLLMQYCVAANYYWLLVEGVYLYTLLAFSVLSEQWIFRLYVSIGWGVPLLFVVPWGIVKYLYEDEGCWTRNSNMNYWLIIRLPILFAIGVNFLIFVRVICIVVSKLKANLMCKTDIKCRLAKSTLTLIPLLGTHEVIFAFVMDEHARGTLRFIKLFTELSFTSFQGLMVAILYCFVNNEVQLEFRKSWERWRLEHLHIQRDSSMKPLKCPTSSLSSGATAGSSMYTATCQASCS
The test can be described thus: GLP-1 receptor in vitro calcium assay (intracellular free calcium concentration change induced via GLP-1 receptor). The format is cell-based. The conditions noted are these: for EC50: PRG48 cells transfected with human GLP-1R, compound added with 250 pM GLP-1, Ca2+ response ΔF/F, read-out: Ca EC50 value; for GLP-1 receptor action enhancing activity (vs BETP): intensity compared to BETP, activity of BETP as 1. A digest of the protocol:
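PRG48 cells transiently transfected with human GLP-1R and loaded with calcium dye in HEPES buffer containing probenecid. Compound added together with 250 pM GLP-1; fluorescence (Ex480/Em540) recorded before and after addition. ΔF/F computed and EC50 fitted from it.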

Test [2] concerns KKAy mice. Kind of test: Blood glucose increase suppressive effect in diabetes model mouse after whey protein and glucose load. The conditions noted are these: male KKAy mice, 3 mg/kg intraperitoneal. The format is in vivo. The procedure: 23-week-old male KKAy mice fasted overnight were randomly divided into 2 groups, and whey protein was orally administered to each mouse at 3 g/kg to induce endogenous GLP-1 secretion. At 30 min after whey protein administration, the compound of the present invention (compound 50) or administration medium (vehicle) was intraperitoneally administered to each mouse at 3 mg/kg, glucose was orally administered immediately thereafter at 2 g/kg, blood samples were collected from the tail vein over time, and the blood glucose level was measured.

The test system of test [3] is isolated rat islets of Langerhans. Kind of test: Glucose-stimulated insulin secretion in isolated rat islets of Langerhans. The format is cell-based. How it is done:
The islets of Langerhans were isolated from the pancreas of male Wistar rats at around 10 weeks of age, according to a conventional method and using collagenase and Ficoll-Conray solution (Cryobiology, 2006, 52:90-8), and used for the activity evaluation of the compound.
The isolated islets were precultured in glucose-free Krebs Ringer Bicarbonate-Hepes buffer (KRBH: 129 mM NaCl, 4.7 mM KCl, 5.0 mM NaHCO3, 1.2 mM MgSO4, […], 2.5 mM CaCl2, 10 mM HEPES, pH 7.4) under the conditions of 37° C., 5% CO2 for 30 min and seeded in each well of a 24 well plate by 5 islets. […] The culture supernatant was recovered from each well after culturing for 1 hr, and the concentration of insulin secreted in the supernatant was measured using a commercially available measurement kit (manufactured by Morinaga Institute of Biological Science, Inc.). The insulin secretion amounts under respective stimulation conditions were calculated as secretion amounts relative to the secretion amount at 8.3 mM glucose.

For `CCCCCCNC(=O)[C@@H](Cc1cccnc1)NC(=O)Nc1ccc(NS(=O)(=O)c2ccc(C(C)(C)C)cc2)cc1` [Compound 96], the cumulative food consumption entry in the test with KKAy mice [1] is listed as “significant suppression”. Further, at human GLP-1R, the EC50 amounted to 600 nM and the “GLP-1 receptor action enhancing activity (vs BETP)” value turned out to be 42.
Regarding `CCCCC(CC)CNC(=O)[C@H](CC1CCCCC1)NC(=O)Nc1ccc(NS(=O)(=O)c2ccc(C(C)(C)C)cc2)cc1` (some centres unmarked) [Compound 50], the “blood glucose at the time of peak” value in the test on KKAy mice [2] (30 min after whey protein 3 g/kg, glucose 2 g/kg oral, peak 30 min after glucose (FIG. 2A)) was “suppression of blood glucose increase at the time of peak”. Also, in the test with KKAy mice [2] (180 min after glucose administration, p<0.05 vs vehicle (FIG. 2B)), the “blood glucose AUC value” is 734.3 ± 65.9 mg·h/dL. Further, in test [3] (30 μM compound 50 alone in buffer containing 8.3 mM glucose, 1 hr), the insulin secretion entry was “did not affect insulin secretion”. The “increase in insulin secretion amount as compared to 8.3 mM glucose alone” value in test [3] (simultaneous addition of 30 μM compound 50 and 1 nM exendin-4, 8.3 mM glucose, 1 hr (FIG. 1)) is given as “about 2 fold”. For the same compound, at human GLP-1R, the EC50 came out at 6.8 nM and the “GLP-1 receptor action enhancing activity (vs BETP)” value is recorded as 3720.
Regarding `CSCCCNC(=O)[C@@H](CC1CCCCC1)NC(=O)Nc1ccc(NS(=O)(=O)c2ccc(C(C)(C)C)cc2)cc1` [Compound 91], on human GLP-1R, the EC50 was 56 nM and the “GLP-1 receptor action enhancing activity (vs BETP)” value came out at 446.
In the same order, the values of `CC(C)(C)c1ccc(S(=O)(=O)Nc2ccc(NC(=O)N[C@@H](CC3CCCCC3)c3nc(-c4ccc(OC(F)(F)F)cc4)no3)cc2)cc1` [Compound 84] are 3.4 nM and 7358.
In the same order, the values of `Cc1cc(C)c(S(=O)(=O)Nc2ccc(NC(=O)N[C@@H](Cc3ccccc3)C(=O)OC(C)(C)C)cc2)c(C)c1` [Compound 80] are 380 nM and 67.
In the same order, the values of `CCCCCCNC(=O)[C@@H](CCCC)NC(=O)Nc1ccc(NS(=O)(=O)c2ccc(C)cc2)cc1` [Compound 16] are 520 nM and 49.
For `CC(C)(C)SCCCCCNC(=O)[C@@H](CC1CCCCC1)NC(=O)Nc1ccc(NS(=O)(=O)c2ccc(C(C)(C)C)cc2)cc1` [Compound 99], on human GLP-1R, the EC50 is 150 nM and the “GLP-1 receptor action enhancing activity (vs BETP)” value was 169.
In the case of `CCCCC(CC)CNC(=O)[C@@H](Cc1ccc(Cl)cc1)NC(=O)Nc1ccc(NS(=O)(=O)c2ccc(C)cc2)cc1` (some centres unmarked) [Compound 39], the EC50 at human GLP-1R was 23 nM.
